Laboratory results as given in PubChem BioAssay AID256 (DTP/NCI, 2004).
Several values for one entry are separate records, joined by “and”; a condition that tells them apart may be missing. Identical values can stand only once. Inconclusive results and toxic doses are left out. Rule for the calls: active = survival T/C of 150% or more; inactive = T/C below 125% in these data.

Tested on: CD2F1 mice, L1210 leukemia ip, survival T/C
Test: NCI In Vivo Anticancer Drug Screen. Data for tumor model L1210 Leukemia (intraperitoneal) in CD2F1 (CDF1) mice
Settings: higher = longer survival
Method in brief: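 Vehicle-treated tumor-bearing mice served as controls (C) for compound-treated mice (T). Reported figure is T divided by C.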

[1] = endpoint: mean survival time, dose: 100.0 mg/kg/injection, schedule: Q01DX009 (ip), vehicle: saline with Tween-80
[2] = endpoint: mean survival time, dose: 200.0 mg/kg/injection, schedule: Q01DX009 (ip), vehicle: saline with Tween-80
[3] = endpoint: mean survival time, dose: 400.0 mg/kg/injection, schedule: Q01DX009 (ip), vehicle: saline with Tween-80

Measured: T/C

C=CCCC(=O)CCCC(=O)O[C@@H]1[C@@H]2[C@H](CC1(C)C)[C@H](O)[C@@]13O[C@@H]1[C@H](O)[C@@]1(CO1)[C@@]23C
inactive: endpoint: mean survival time, dose: 6.2 micrograms/kg/injection, schedule: Q01DX009 (ip), vehicle: saline 95 % of control | endpoint: mean survival time, dose: 12.5 micrograms/kg/injection, schedule: Q01DX009 (ip), vehicle: saline 89 % of control | endpoint: mean survival time, dose: 25.0 micrograms/kg/injection, schedule: Q01DX009 (ip), vehicle: saline 95 % of control | endpoint: mean survival time, dose: 50.0 micrograms/kg/injection, schedule: Q01DX009 (ip), vehicle: saline 97 % of control | endpoint: median survival time, dose: 25.0 micrograms/kg/injection, schedule: Q01DX009 (ip), vehicle: Klucel (hydroxypropylcellulose) (HPC) 101 % of control | endpoint: median survival time, dose: 50.0 micrograms/kg/injection, schedule: Q01DX009 (ip), vehicle: Klucel (hydroxypropylcellulose) (HPC) 101 % of control | endpoint: median survival time, dose: 100.0 micrograms/kg/injection, schedule: Q01DX009 (ip), vehicle: Klucel (hydroxypropylcellulose) (HPC) 100 % of control | endpoint: median survival time, dose: 200.0 micrograms/kg/injection, schedule: Q01DX009 (ip), vehicle: Klucel (hydroxypropylcellulose) (HPC) 94 % of control | endpoint: median survival time, dose: 400.0 micrograms/kg/injection, schedule: Q01DX009 (ip), vehicle: Klucel (hydroxypropylcellulose) (HPC) 97 % of control

CC(=O)Nc1ccc(Br)cn1
inactive: endpoint: mean survival time, dose: 100.0 mg/kg/injection, schedule: Q01DX001 (ip), vehicle: saline with Tween-80 97 % of control | endpoint: mean survival time, dose: 200.0 mg/kg/injection, schedule: Q01DX001 (ip), vehicle: saline with Tween-80 105 % of control | endpoint: mean survival time, dose: 400.0 mg/kg/injection, schedule: Q01DX001 (ip), vehicle: saline with Tween-80 102 % of control

O=C1N[C@H]2[C@H](O)[C@H](O)[C@@H](O)[C@H](O)[C@@H]2c2cc3c(c(O)c21)OCO3
inactive: endpoint: median survival time, dose: 0.38 mg/kg/injection, schedule: Q01DX009 (ip), vehicle: saline + alcohol 120 % of control | endpoint: median survival time, dose: 0.75 mg/kg/injection, schedule: Q01DX009 (ip), vehicle: saline + alcohol 122 % of control | endpoint: median survival time, dose: 1.5 mg/kg/injection, schedule: Q01DX009 (ip), vehicle: saline + alcohol 121 % of control

COc1nc(Cl)nc(Cl)c1Cl (tested in a mixture with another compound)
inactive: endpoint: mean survival time, dose: 12.5 mg/kg/injection, schedule: Q01DX009 (ip), vehicle: other 93 % of control | endpoint: mean survival time, dose: 25.0 mg/kg/injection, schedule: Q01DX009 (ip), vehicle: other 93 % of control | endpoint: mean survival time, dose: 50.0 mg/kg/injection, schedule: Q01DX009 (ip), vehicle: other 104 % of control

NCCc1ccc(O)c(O)c1
inactive: endpoint: mean survival time, dose: 25.0 mg/kg/injection, schedule: Q01DX009 (ip), vehicle: saline 97 % of control | endpoint: mean survival time, dose: 50.0 mg/kg/injection, schedule: Q01DX009 (ip), vehicle: saline 109 % of control | endpoint: mean survival time, dose: 100.0 mg/kg/injection, schedule: Q01DX009 (ip), vehicle: saline 122 % of control and 109 % of control | endpoint: mean survival time, dose: 200.0 mg/kg/injection, schedule: Q01DX009 (ip), vehicle: saline 112 % of control | endpoint: mean survival time, dose: 400.0 mg/kg/injection, schedule: Q01DX009 (ip), vehicle: saline 119 % of control | endpoint: median survival time, dose: 0.1 mg/kg/injection, schedule: Q01DX009 (ip), vehicle: saline 98 % of control and 107 % of control | endpoint: median survival time, dose: 0.5 mg/kg/injection, schedule: Q01DX009 (ip), vehicle: saline 101 % of control and 107 % of control | endpoint: median survival time, dose: 1.0 mg/kg/injection, schedule: Q01DX009 (ip), vehicle: saline 101 % of control and 107 % of control | endpoint: median survival time, dose: 10.0 mg/kg/injection, schedule: Q01DX009 (ip), vehicle: saline 97 % of control | endpoint: median survival time, dose: 25.0 mg/kg/injection, schedule: Q01DX020 (ip), vehicle: saline 101 % of control | endpoint: median survival time, dose: 50.0 mg/kg/injection, schedule: Q01DX020 (ip), vehicle: saline 109 % of control | endpoint: median survival time, dose: 50.0 mg/kg/injection, schedule: Q04DX002 (ip), vehicle: saline with Tween-80 111 % of control | endpoint: median survival time, dose: 100.0 mg/kg/injection, schedule: Q01DX009 (ip), vehicle: saline 113 % of control and 117 % of control | endpoint: median survival time, dose: 100.0 mg/kg/injection, schedule: Q01DX020 (ip), vehicle: saline 115 % of control | endpoint: median survival time, dose: 100.0 mg/kg/injection, schedule: Q04DX002 (ip), vehicle: saline with Tween-80 111 % of control | endpoint: median survival time, dose: 150.0 mg/kg/injection, schedule: Q01DX009 (ip), vehicle: saline 114 % of control | endpoint: median survival time, dose: 200.0 mg/kg/injection, schedule: Q01DX020 (ip), vehicle: saline 115 % of control | endpoint: median survival time, dose: 200.0 mg/kg/injection, schedule: Q04DX002 (ip), vehicle: saline with Tween-80 100 % of control | endpoint: median survival time, dose: 400.0 mg/kg/injection, schedule: Q01DX020 (ip), vehicle: saline 118 % of control | endpoint: median survival time, dose: 400.0 mg/kg/injection, schedule: Q04DX002 (ip), vehicle: saline with Tween-80 100 % of control | endpoint: median survival time, dose: 800.0 mg/kg/injection, schedule: Q01DX020 (ip), vehicle: saline 118 % of control

O=C(Sc1nc2ccccc2s1)c1ccccc1
inactive: endpoint: mean survival time, dose: 100.0 mg/kg/injection, schedule: Q01DX001 (ip), vehicle: saline 95 % of control | endpoint: mean survival time, dose: 200.0 mg/kg/injection, schedule: Q01DX001 (ip), vehicle: saline 97 % of control | endpoint: mean survival time, dose: 400.0 mg/kg/injection, schedule: Q01DX001 (ip), vehicle: saline 115 % of control

CCC(C)(O)C(C)=O (stereo unspecified)
inactive: endpoint: mean survival time, dose: 12.5 mg/kg/injection, schedule: Q01DX009 (ip), vehicle: Klucel (hydroxypropylcellulose) (HPC) 98 % of control | endpoint: mean survival time, dose: 25.0 mg/kg/injection, schedule: Q01DX009 (ip), vehicle: Klucel (hydroxypropylcellulose) (HPC) 92 % of control | endpoint: mean survival time, dose: 50.0 mg/kg/injection, schedule: Q01DX009 (ip), vehicle: Klucel (hydroxypropylcellulose) (HPC) 98 % of control | endpoint: mean survival time, dose: 100.0 mg/kg/injection, schedule: Q01DX009 (ip), vehicle: Klucel (hydroxypropylcellulose) (HPC) 98 % of control | endpoint: mean survival time, dose: 200.0 mg/kg/injection, schedule: Q01DX009 (ip), vehicle: Klucel (hydroxypropylcellulose) (HPC) 105 % of control

O=C1CCCCCC2CC12 (stereo unspecified)
inactive: [1] 94 % of control | [2] 102 % of control | [3] 94 % of control

O=C1CCn2c3ccccc3c3cccc1c32
inactive: [1] 101 % of control | [2] 101 % of control | [3] 96 % of control

C#CCO
inactive: endpoint: mean survival time, dose: 12.0 mg/kg/injection, schedule: Q04DX003 (ip), vehicle: saline 94 % of control | endpoint: mean survival time, dose: 25.0 mg/kg/injection, schedule: Q04DX003 (ip), vehicle: saline 97 % of control | endpoint: mean survival time, dose: 50.0 mg/kg/injection, schedule: Q04DX003 (ip), vehicle: saline 103 % of control

CC(=O)/C=C/c1ccc([N+](=O)[O-])cc1
inactive: endpoint: mean survival time, dose: 100.0 mg/kg/injection, schedule: Q04DX003 (ip), vehicle: saline sonified 102 % of control | endpoint: mean survival time, dose: 200.0 mg/kg/injection, schedule: Q04DX003 (ip), vehicle: saline sonified 102 % of control | endpoint: mean survival time, dose: 400.0 mg/kg/injection, schedule: Q04DX003 (ip), vehicle: saline sonified 95 % of control

C=CCC(C(=O)OC)(C(=O)OC)c1ccc(OC)c(OC)c1
inactive: endpoint: mean survival time, dose: 75.0 mg/kg/injection, schedule: Q01DX001 (ip), vehicle: saline 100 % of control | endpoint: mean survival time, dose: 150.0 mg/kg/injection, schedule: Q01DX001 (ip), vehicle: saline 96 % of control | endpoint: mean survival time, dose: 300.0 mg/kg/injection, schedule: Q01DX001 (ip), vehicle: saline 98 % of control

N#C/C(=C\c1ccco1)c1ccc([N+](=O)[O-])cc1
inactive: endpoint: mean survival time, dose: 6.25 mg/kg/injection, schedule: Q04DX003 (ip), vehicle: saline with Tween-80 102 % of control | endpoint: mean survival time, dose: 12.5 mg/kg/injection, schedule: Q04DX003 (ip), vehicle: saline with Tween-80 102 % of control | endpoint: mean survival time, dose: 25.0 mg/kg/injection, schedule: Q04DX003 (ip), vehicle: saline with Tween-80 100 % of control | endpoint: mean survival time, dose: 100.0 mg/kg/injection, schedule: Q01DX001 (ip), vehicle: Klucel (hydroxypropylcellulose) (HPC) 106 % of control | endpoint: mean survival time, dose: 200.0 mg/kg/injection, schedule: Q01DX001 (ip), vehicle: Klucel (hydroxypropylcellulose) (HPC) 95 % of control | endpoint: mean survival time, dose: 400.0 mg/kg/injection, schedule: Q01DX001 (ip), vehicle: Klucel (hydroxypropylcellulose) (HPC) 94 % of control

O=[N+]([O-])c1ccc(C2C3C(c4ccccc4)=NCCCN32)cc1 (stereo unspecified)
inactive: endpoint: mean survival time, dose: 100.0 mg/kg/injection, schedule: Q04DX003 (ip), vehicle: saline with Tween-80 104 % of control | endpoint: mean survival time, dose: 200.0 mg/kg/injection, schedule: Q04DX003 (ip), vehicle: saline with Tween-80 97 % of control | endpoint: mean survival time, dose: 400.0 mg/kg/injection, schedule: Q04DX003 (ip), vehicle: saline with Tween-80 97 % of control
